In patent EP1247803A2, “Indolinone compounds suitable for modulation of protein kinases” (Sugen, Inc., priority 1996, dated 1998):

Tests used:
FLK-1 receptor = target: T1, FLK-1 receptor (Mus musculus, UniProt P35918); assay: FLK-1 ELISA (kinase activity of the FLK-1 receptor in FLK-1/NIH3T3 cells, VEGF stimulated); format: cell-based; design: concentration or dose not given beside the values
T1 construct: expressed in transfected cells; host or cells: NIH3T3 C7#3
Method in brief: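 FLK-1-expressing NIH3T3 C7#3 cells, starved overnight in 0.1% FBS medium, were treated with compounds at a 1:200 final dilution (0.5% DMSO) for 2 h at 37 °C, with VEGF stimulation. FLK-1 kinase activity was read by ELISA on anti-rabbit IgG plates using affinity-purified anti-FLK-1 antiserum.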

MET = MET biochemical kinase assay; design: species or system human; concentration or dose not given beside the values
Method in brief: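 Immunocaptured MET autophosphorylation, read colorimetrically (TMB) via HRP anti-phosphotyrosine antibody. Kinase reaction initiated with buffer containing ATP and divalent metals after compound addition to plate-bound receptor from lysates.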

T1 sequence (P35918 20-1345): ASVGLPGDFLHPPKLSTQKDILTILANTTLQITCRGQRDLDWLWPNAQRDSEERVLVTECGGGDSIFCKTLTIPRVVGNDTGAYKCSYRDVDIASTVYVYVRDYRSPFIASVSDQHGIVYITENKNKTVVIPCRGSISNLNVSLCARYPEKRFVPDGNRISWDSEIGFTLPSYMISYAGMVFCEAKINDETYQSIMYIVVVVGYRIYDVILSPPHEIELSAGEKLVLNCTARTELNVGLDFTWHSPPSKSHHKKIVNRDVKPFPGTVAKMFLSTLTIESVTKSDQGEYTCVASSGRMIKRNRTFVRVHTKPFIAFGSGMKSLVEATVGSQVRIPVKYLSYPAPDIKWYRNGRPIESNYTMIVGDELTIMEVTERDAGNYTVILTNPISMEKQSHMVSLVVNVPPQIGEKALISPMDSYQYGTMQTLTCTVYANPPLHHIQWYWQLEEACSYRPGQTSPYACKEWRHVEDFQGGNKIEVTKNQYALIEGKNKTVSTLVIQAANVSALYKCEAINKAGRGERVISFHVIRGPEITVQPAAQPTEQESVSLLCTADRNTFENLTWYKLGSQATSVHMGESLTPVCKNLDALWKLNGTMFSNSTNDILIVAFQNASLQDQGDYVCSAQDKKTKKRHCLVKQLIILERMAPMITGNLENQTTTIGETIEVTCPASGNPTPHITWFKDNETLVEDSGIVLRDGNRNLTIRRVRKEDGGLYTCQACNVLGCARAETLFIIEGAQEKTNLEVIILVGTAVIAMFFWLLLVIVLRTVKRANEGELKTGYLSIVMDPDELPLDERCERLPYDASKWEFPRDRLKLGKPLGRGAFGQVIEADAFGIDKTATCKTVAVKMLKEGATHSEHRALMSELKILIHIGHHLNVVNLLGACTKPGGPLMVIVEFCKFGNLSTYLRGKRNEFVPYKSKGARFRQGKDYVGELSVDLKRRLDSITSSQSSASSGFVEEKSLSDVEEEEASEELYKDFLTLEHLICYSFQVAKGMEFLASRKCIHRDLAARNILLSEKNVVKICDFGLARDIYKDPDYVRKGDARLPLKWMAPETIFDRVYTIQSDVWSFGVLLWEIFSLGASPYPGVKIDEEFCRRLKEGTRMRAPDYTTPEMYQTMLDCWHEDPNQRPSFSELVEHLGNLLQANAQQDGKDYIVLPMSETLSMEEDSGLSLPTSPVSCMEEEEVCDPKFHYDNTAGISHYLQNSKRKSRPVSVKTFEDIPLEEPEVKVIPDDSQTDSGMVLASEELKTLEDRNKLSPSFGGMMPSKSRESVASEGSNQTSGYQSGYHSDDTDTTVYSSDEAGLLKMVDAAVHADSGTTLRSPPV

Compound	Fik Kinase %Inhibition (FLK-1 receptor)	Met Kinase % Inhibition (MET)
CC(=O)Oc1ccc(C=C2C(=O)Nc3ccc(S(=O)(=O)Nc4ccc(C(F)(F)F)cc4)cc32)cc1OC(C)=O [10723/E05]	8.9%	63.7%
Cc1cc(C=C2C(=O)Nc3ccc(S(=O)(=O)Nc4ccc(C(F)(F)F)cc4)cc32)ccc1O [10723/E06]	19.3%	74.4%
O=C1Nc2ccc(S(=O)(=O)Nc3ccc(C(F)(F)F)cc3)cc2C1=Cc1ccccc1Br [10723/E07]	17.4%	47.7%
O=C1Nc2ccc(S(=O)(=O)Nc3ccc(C(F)(F)F)cc3)cc2C1=Cc1ccc(O)cc1O [10723/E08]	-0.4%	89.3%
COc1ccc(C=C2C(=O)Nc3ccc(S(=O)(=O)Nc4ccc(C(F)(F)F)cc4)cc32)c(O)c1 [10723/E09]	7.9%	91.7%
O=C1Nc2ccc(S(=O)(=O)Nc3ccc(C(F)(F)F)cc3)cc2C1=Cc1cccc(Br)c1 [10723/E10]	5.2%	59.5%
CC(C)(C)c1cc(C=C2C(=O)Nc3ccc(S(=O)(=O)Nc4ccc(C(F)(F)F)cc4)cc32)c(O)c(C(C)(C)C)c1 [10723/E11]	8.9%	50.1%
O=C1Nc2ccc(S(=O)(=O)N3CCOCC3)cc2C1=Cc1ccc(O)c(O)c1O [10723/F02]	10.3%	99.0%
COc1cccc(C=C2C(=O)Nc3ccc(S(=O)(=O)N4CCOCC4)cc32)c1O [10723/F03]	4.4%	78.3%
O=C1Nc2ccc(S(=O)(=O)N3CCOCC3)cc2C1=Cc1cc(O)c(O)c(Br)c1 [10723/F04]	12.3%	94.0%
CC(=O)Oc1ccc(C=C2C(=O)Nc3ccc(S(=O)(=O)N4CCOCC4)cc32)cc1OC(C)=O [10723/F05]	-6.4%	45.6%
O=C1Nc2ccc(CCCl)cc2C1=Cc1ccc(O)c(O)c1O [10723/G02]	-1.6%	99.2%
COc1cccc(C=C2C(=O)Nc3ccc(CCCl)cc32)c1O [10723/G03]	4.3%	74.7%
O=C1Nc2ccc(CCCl)cc2C1=Cc1cc(O)c(O)c(Br)c1 [10723/G04]	8.7%	85.9%
CC(=O)Oc1ccc(C=C2C(=O)Nc3ccc(CCCl)cc32)cc1OC(C)=O [10723/G05]	-9.4%	79.9%
Cc1cc(C=C2C(=O)Nc3ccc(CCCl)cc32)ccc1O [10723/G06]	14.1%	64.5%
O=C1Nc2ccc(CCCl)cc2C1=Cc1ccccc1Br [10723/G07]	14.2%	43.0%
O=C1Nc2ccc(CCCl)cc2C1=Cc1ccc(O)cc1O [10723/G08]	-22.9%	79.9%
COc1ccc(C=C2C(=O)Nc3ccc(CCCl)cc32)c(O)c1 [10723/G09]	-1.8%	80.7%
